Data: the supplement of paper PMC10307832

How the values were obtained:
Test in all cases: relative viability (nuclei count vs DMSO), 5 days (fraction); higher = more cells survive
A549 = test system: A549
Procedure, shortened: (§1)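 Lung cancer cell lines were pin-tool dosed in 1536-well plates on the day after seeding, with either a lone drug or a fixed anchor-drug dose plus five library-drug doses (not always all listed) in √10 steps. Nuclei were counted on 4× images after 5 days. Relative viability is the ratio of treated-well to vehicle-well nuclei counts, with each value a median of duplicate plates.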

NCI-H1299 = test system: NCI-H1299
Procedure, shortened: as §1

Calu-6 = test system: Calu-6
Procedure, shortened: as §1

NCI-H1703 = test system: NCI-H1703
Procedure, shortened: as §1

NCI-H2126 = test system: NCI-H2126
Procedure, shortened: as §1

IA-LM = test system: IA-LM
Procedure, shortened: as §1

EBC-1 = test system: EBC-1
Procedure, shortened: as §1

SMILES | relative viability (A549; first compound 0.04 µM) | relative viability (A549; first compound 0.1265 µM) | relative viability (A549; first compound 0.4 µM) | relative viability (A549; first compound 4 µM) | relative viability (NCI-H1299; first compound 0.04 µM) | relative viability (NCI-H1299; first compound 0.1265 µM) | relative viability (NCI-H1299; first compound 0.4 µM) | relative viability (NCI-H1299; first compound 4 µM) | relative viability (Calu-6; first compound 0.04 µM) | relative viability (Calu-6; first compound 0.1265 µM) | relative viability (Calu-6; first compound 0.4 µM) | relative viability (Calu-6; first compound 4 µM) | relative viability (NCI-H1703; first compound 0.04 µM) | relative viability (NCI-H1703; first compound 0.1265 µM) | relative viability (NCI-H1703; first compound 0.4 µM) | relative viability (NCI-H1703; first compound 4 µM) | relative viability (NCI-H2126; first compound 0.04 µM) | relative viability (NCI-H2126; first compound 0.1265 µM) | relative viability (NCI-H2126; first compound 0.4 µM) | relative viability (NCI-H2126; first compound 4 µM) | relative viability (IA-LM; first compound 0.04 µM) | relative viability (IA-LM; first compound 0.1265 µM) | relative viability (IA-LM; first compound 0.4 µM) | relative viability (IA-LM; first compound 4 µM) | relative viability (EBC-1; first compound 0.04 µM) | relative viability (EBC-1; first compound 0.1265 µM) | relative viability (EBC-1; first compound 0.4 µM) | relative viability (EBC-1; first compound 4 µM)
C[C@@H]1CN(CC(=O)Nc2ccc3c(c2)Cc2cccc(-c4cc(=O)cc(N5CCOCC5)o4)c2S3)C[C@H](C)O1 + CC1(C)CCC(c2ccc(Cl)cc2)=C(CN2CCN(c3ccc(C(=O)NS(=O)(=O)c4ccc(N[C@H](CCN5CCOCC5)CSc5ccccc5)c(S(=O)(=O)C(F)(F)F)c4)cc3)CC2)C1 [Navitoclax] (partner 0.5 µM) | 1.3 | 1.2 | 1.23 | 0.912 | 1.03 | 1.04 | 1.01 | 0.941 | 0.871 | 0.831 | 0.889 | 0.54 | 1.42 | 1.45 | 0.911 | 0.808 | 0.879 | 0.868 | 0.808 | 0.851 | 0.759 | 0.787 | 0.669 | 0.317 | 0.405 | 0.432 | 0.287 | 0.216
C[C@@H]1CN(CC(=O)Nc2ccc3c(c2)Cc2cccc(-c4cc(=O)cc(N5CCOCC5)o4)c2S3)C[C@H](C)O1 + CC(C)C[C@H](NC(=O)[C@H](Cc1ccccc1)NC(=O)c1cnccn1)B(O)O [Bortezomib] (partner 0.002 µM) | – | – | – | – | 1.03 | 1.03 | 1.01 | 0.926 | 1.07 | 1.03 | 1.08 | 0.66 | 0.469 | 0.365 | 0.241 | 0.254 | 1.13 | 1.12 | 1.17 | 1.06 | 0.669 | 0.773 | 0.832 | 0.375 | 0.636 | 0.535 | 0.472 | 0.335
C[C@@H]1CN(CC(=O)Nc2ccc3c(c2)Cc2cccc(-c4cc(=O)cc(N5CCOCC5)o4)c2S3)C[C@H](C)O1 + CS(=O)(=O)CCNCc1ccc(-c2ccc3ncnc(Nc4ccc(OCc5cccc(F)c5)c(Cl)c4)c3c2)o1 [Lapatinib] (partner 2 µM) | 0.986 | 0.917 | 1.14 | 0.831 | 1.01 | 0.956 | 1.01 | 0.816 | 1.09 | 1.06 | 0.96 | 0.775 | 1.24 | 1.1 | 0.955 | 0.688 | 0.762 | 0.757 | 0.764 | 0.763 | 0.951 | 0.777 | 0.956 | 0.339 | 0.255 | 0.219 | 0.214 | 0.208
C[C@@H]1CN(CC(=O)Nc2ccc3c(c2)Cc2cccc(-c4cc(=O)cc(N5CCOCC5)o4)c2S3)C[C@H](C)O1 + CS(=O)(=O)N1CCN(Cc2cc3nc(-c4cccc5[nH]ncc45)nc(N4CCOCC4)c3s2)CC1 [Pictilisib] (partner 1 µM) | 0.524 | 0.594 | 0.444 | 0.323 | 0.898 | 0.739 | 0.848 | 0.689 | 0.962 | 0.97 | 0.925 | 0.8 | 0.249 | 0.243 | 0.238 | 0.205 | 0.536 | 0.49 | 0.459 | 0.487 | 0.3 | 0.372 | 0.301 | 0.234 | 0.487 | 0.412 | 0.244 | 0.266
C[C@@H]1CN(CC(=O)Nc2ccc3c(c2)Cc2cccc(-c4cc(=O)cc(N5CCOCC5)o4)c2S3)C[C@H](C)O1 + C[C@@H](Oc1cc(-c2cnn(C3CCNCC3)c2)cnc1N)c1c(Cl)ccc(F)c1Cl [Crizotinib] (partner 1 µM) | 0.909 | 0.772 | 0.874 | 0.522 | 0.915 | 0.92 | 0.844 | 0.837 | 0.829 | 0.719 | 0.597 | 0.528 | 0.607 | 0.678 | 0.595 | 0.513 | 1.05 | 1.02 | 1.05 | 1.02 | 1.02 | 0.671 | 0.657 | 0.36 | 0.202 | 0.203 | 0.201 | 0.2
C[C@@H]1CN(CC(=O)Nc2ccc3c(c2)Cc2cccc(-c4cc(=O)cc(N5CCOCC5)o4)c2S3)C[C@H](C)O1 + C[C@]1(O)C[C@@H](c2nc(-c3ccc4ccc(-c5ccccc5)nc4c3)c3c(N)nccn32)C1 [Linsitinib] (partner 1 µM) | 0.471 | 0.709 | 0.58 | 0.488 | 1.01 | 0.978 | 0.964 | 0.822 | 0.858 | 0.911 | 0.938 | 0.673 | 0.853 | 1.24 | 0.549 | 0.492 | 0.765 | 0.762 | 0.707 | 0.722 | 0.713 | 0.549 | 0.528 | 0.283 | 1.01 | 0.867 | 0.84 | 0.599
